Reference: patent US4175081A, “5-Substituted thiadiazole ureas” (priority 1977, dated 1979)

How the values were obtained:
Cotton (CT) [1] = test: Pre-emergence herbicide test; assay type: in vivo, Gossypium hirsutum var. DPL smooth leaf; settings: Gossypium hirsutum, 336 h, two weeks after treatment; for pest or weed control at 8966.8 g/ha: 8 lb/acre
Procedure, shortened: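 Crop and weed species seeded one day before treatment, then sprayed pre-emergence at 8 lbs actual compound per acre (also 4 lbs/acre formulations) in 38 gallons per acre. Pots kept in greenhouse with sub-irrigation only; injury or control visually rated two weeks after treatment.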

Crabgrass (CG) [2] = test: Post-emergence herbicide test; assay type: in vivo, Digitaria sanquinalis; settings: Digitaria sanguinalis, post-emergence, 336 h, two weeks after treatment; for pest or weed control at 8966.8 g/ha: 8 lb/acre
Procedure, shortened: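 Crabgrass (Digitaria sanquinalis) was surface seeded individually in 3' plastic pots of potting soil, covered with screened soil, and watered by sub-irrigation in greenhouse trays. Planting was staggered so seedlings reached the target stage together. Post-emergence sprays were applied in a hood with a removable belt and fixed nozzle, and control was visually rated two weeks after treatment.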

Barnyard grass (BG) [3] = test: Post-emergence herbicide test; assay type: in vivo; settings: Echinochloa crus-galli, 336 h, two weeks after treatment
Procedure, shortened: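 Greenhouse pot-grown barnyard grass seedlings sprayed post-emergence at 8 lbs active compound per acre (some at 4 lbs/acre) in 38 gallons per acre, then sub-irrigated. Injury or control rated visually two weeks after treatment.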

Crabgrass (CG) [4] = test: Pre-emergence herbicide test; assay type: in vivo, Digitaria sanquinalis; settings: Digitaria sanguinalis, pre-emergence, 336 h, two weeks after treatment; for pest or weed control at 8966.8 g/ha: 8 lb/acre
Procedure, shortened: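 Crabgrass (Digitaria sanquinalis) was surface seeded in 3' plastic pots of potting soil, covered with screened soil, and watered by sub-irrigation in greenhouse trays. Pots were seeded one day before spraying in a hood with a moving belt and fixed nozzle. Plants stayed in the greenhouse on sub-irrigation, and pre-emergence control was rated visually two weeks after treatment.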

Bean (BN) [5] = test: Post-emergence herbicide test; assay type: in vivo, Phaseolus vulgaris var. Black Valentine; settings: Phaseolus vulgaris, post-emergence, 336 h, two weeks after treatment; for pest or weed control at 8966.8 g/ha: 8 lb/acre
Procedure, shortened: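 Snapbean (Phaseolus vulgaris var. Black Valentine) was tested post-emergence. Four seeds were sown in 3' plastic pots of potting soil at a depth equal to the seed diameter, then sub-irrigated in greenhouse trays. Planting dates were staggered so plants were sprayed once primary leaves had expanded, with the growing point at the primary leaf nodes.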

Turnip (TP) [6] = test: Post-emergence herbicide test; assay type: in vivo, Brassica sp.; settings: Brassica rapa, post-emergence, 336 h, two weeks after treatment; for pest or weed control at 8966.8 g/ha: 8 lb/acre
Procedure, shortened: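 A greenhouse post-emergence herbicide test on turnip. Seeds were sown on the surface of potting soil in 3' plastic pots, lightly covered with screened soil and watered from below. Planting was timed so seedlings had 1 or 2 true leaves above the cotyledons at spraying, done in a hood with a fixed nozzle. Control or injury was scored by eye after two weeks.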

Amaranth pigweed (PW) [7] = test: Post-emergence herbicide test; assay type: in vivo, Amaranthus retroflexus; settings: 336 h, two weeks after treatment; for pest or weed control at 8966.8 g/ha: 8 lb/acre
Protocol: Amaranth pigweed (PW)--Amaranthus retroflexus
All crop and weed species were planted individually in 3' plastic pots containing potting soil. Four seeds each of corn, cotton, and snapbeans were seeded to a depth equal to the diameter of the seed. All other species were surface seeded and sprinkled with screened soil in an amount sufficient to cover the seed. Immediately after planting, all pots were watered by sub-irrigation in greenhouse trays. Pots for the pre-emergence phase were seeded one day before treatment.
Planting dates for the post-emergence phase were varied so that all seedlings would reach the desired stage of development simultaneously. The proper stage of seedling development for treatment in the post-emergence phase is as follows:
Pigweed and turnips: 1 or 2 true leaves above visible cotyledons.
Compounds were tested at rates of application equivalent to 8 lbs. of actual compound per acre in a spray volume of 38 gallons per acre. Spray hood constants required to deliver the above volume are as follows:
Formulations for spray applications were prepared in 50 ml volumes with the following three components:
Formulations for the 4 lbs/acre rate were prepared by adjusting the amount of active ingredient accordingly.
Spray applications were made in a hood containing a removable belt and fixed spray nozzle. For passage through the spray hood, one pot of each specie (pre-emergence phase) was placed on the rear half of the flat. Treatments were removed to the greenhouse after spraying. Watering during the observation period was done only by sub-irrigation.
Two weeks after treatment, pre- and post-emergence injury or control was visually rated, and the results were as shown in the following tables. Pre-emergence data are provided in TABLE III and post-emergence data are provided in TABLE IV, for compounds having the formula illustrated in TABLE I. Correspondingly, pre-emergence and post-emergence data, respectively, are set forth in TABLES V AND VI, for compounds having the formula illustrated in TABLE II.

Corn (CN) [8] = test: Pre-emergence herbicide test; assay type: in vivo; settings: Zea mays, 336 h, two weeks after treatment; for pest or weed control at 8966.8 g/ha: 8 lb/acre
Procedure, shortened: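 Four corn seeds per pot, sown at seed-diameter depth one day before spraying, got soil surface treatment at 8 lbs/acre (4 lbs/acre formulations also prepared) in 38 gallons/acre. Pots were greenhouse-held with sub-irrigation only. Injury or control was scored visually two weeks after treatment.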

Cotton (CT) [9] = test: Post-emergence herbicide test; assay type: in vivo, Gossypium hirsutum var. DPL smooth leaf; settings: Gossypium hirsutum, post-emergence, 336 h, two weeks after treatment; for pest or weed control at 8966.8 g/ha: 8 lb/acre
Procedure, shortened: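 Cotton (Gossypium hirsutum var. DPL smooth leaf) was grown in 3' plastic pots of potting soil, four seeds per pot, planted at a depth equal to the seed diameter and watered by sub-irrigation. At the stage of expanded cotyledons with the first true leaf 1' long, plants were sprayed post-emergence in a hood with a fixed nozzle over a moving belt. Percent control was rated visually two weeks later.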

Johnson grass (JG) [10] = test: Post-emergence herbicide test; assay type: in vivo, Sorgum helepense; settings: Sorghum halepense, 336 h, two weeks after treatment; for pest or weed control at 8966.8 g/ha: 8 lb/acre
Procedure, shortened: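 Greenhouse pot-grown seedlings sprayed post-emergence at 8 lbs compound per acre (some at 4 lbs/acre) in 38 gallons per acre spray volume. Sub-irrigated thereafter. Injury/control rated visually two weeks after treatment.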

Corn (CN) [11] = test: Post-emergence herbicide test; assay type: in vivo; settings: Zea mays, 336 h, two weeks after treatment; for pest or weed control at 8966.8 g/ha: 8 lb/acre
Procedure, shortened: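 Greenhouse seedlings grown in potting soil and sprayed post-emergence at 8 lbs compound/acre (formulations also made for 4 lbs/acre) in 38 gallons/acre spray volume. Watering by sub-irrigation only. Injury or control rated visually two weeks after treatment.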

Barnyard grass (BG) [12] = test: Pre-emergence herbicide test; assay type: in vivo; settings: Echinochloa crus-galli, 336 h, two weeks after treatment
Procedure, shortened: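 Barnyard grass surface-seeded in potting soil and sprayed pre-emergence one day after seeding, at 8 or 4 lb compound/acre in 38 gal/acre spray volume. Pots kept in greenhouse with sub-irrigation only; injury or control rated visually two weeks after treatment.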

Johnson grass (JG) [13] = test: Pre-emergence herbicide test; assay type: in vivo, Sorgum helepense; settings: Sorghum halepense, 336 h, two weeks after treatment; for pest or weed control at 8966.8 g/ha: 8 lb/acre
Procedure, shortened: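 Pots seeded one day before spraying; compound applied pre-emergence at 8 lbs/acre (or 4 lbs/acre) in 38 gallons/acre spray volume. Sub-irrigated in greenhouse; injury/control rated visually two weeks after treatment.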

Turnip (TP) [14] = test: Pre-emergence herbicide test; assay type: in vivo, Brassica sp.; settings: Brassica rapa, pre-emergence, 336 h, two weeks after treatment; for pest or weed control at 8966.8 g/ha: 8 lb/acre
Procedure, shortened: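 Turnip (Brassica sp.) seeds were surface sown in 3' plastic pots of potting soil, covered with a thin layer of screened soil, and sub-irrigated in greenhouse trays. Pots were seeded one day ahead of treatment, sprayed pre-emergence under a hood with a fixed nozzle and moving belt, then kept in the greenhouse.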

Amaranth pigweed (PW) [15] = test: Pre-emergence herbicide test; assay type: in vivo, Amaranthus retroflexus; settings: 336 h, two weeks after treatment; for pest or weed control at 8966.8 g/ha: 8 lb/acre
Procedure, shortened: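 Pigweed was surface-seeded in potted soil one day before spraying at 8 lbs compound per acre, or 4 lbs/acre, in 38 gallons per acre. Pots were kept in the greenhouse with sub-irrigation only; injury or control was rated visually two weeks after treatment.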

Bean (BN) [16] = test: Pre-emergence herbicide test; assay type: in vivo, Phaseolus vulgaris var. Black Valentine; settings: Phaseolus vulgaris, 336 h, two weeks after treatment; for pest or weed control at 8966.8 g/ha: 8 lb/acre
Procedure, shortened: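 Black Valentine bean was seeded in potting soil one day before spraying. Compound was applied pre-emergence at 8 lbs/acre (also 4 lbs/acre) in 38 gallons per acre. Plants were sub-irrigated and injury or control was rated visually after two weeks.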

`CCCSc1nnc(N(C)C(=O)NC)s1` [Example 69] was tested, and the pest or weed control at 2241.7 g/ha (Cotton (CT) [1]; 2 lb/acre) was 50%, the pest or weed control at 4483.4 g/ha (Cotton (CT) [1]; 4 lb/acre) was 30% and the pest or weed control at 8966.8 g/ha (Cotton (CT) [1]) was 90%. The pest or weed control (Crabgrass (CG) [2]; 2 lb/acre) was 100%, the pest or weed control at 4483.4 g/ha (Crabgrass (CG) [2]; 4 lb/acre) was 90% and the pest or weed control at 8966.8 g/ha (Crabgrass (CG) [2]) was 100%. For the same compound, the pest or weed control at 2241.7 g/ha (Barnyard grass (BG) [3]; 2 lb/acre) was 90%, the pest or weed control at 4483.4 g/ha (Barnyard grass (BG) [3]; 4 lb/acre) was 80% and the pest or weed control (Crabgrass (CG) [4]; 2 lb/acre) was 90%. It also gave a pest or weed control at 4483.4 g/ha (Crabgrass (CG) [4]; 4 lb/acre) of 90%, a pest or weed control at 8966.8 g/ha (Crabgrass (CG) [4]) of 100% and a pest or weed control at 2241.7 g/ha (Bean (BN) [5]; 2 lb/acre) of 100%. It also gave a pest or weed control at 4483.4 g/ha (Bean (BN) [5]; 4 lb/acre) of 100%, a pest or weed control at 8966.8 g/ha (Bean (BN) [5]) of 100% and a pest or weed control at 2241.7 g/ha (Turnip (TP) [6]; 2 lb/acre) of 100%. For the same compound, the pest or weed control at 4483.4 g/ha (Turnip (TP) [6]; 4 lb/acre) was 100%, the pest or weed control at 8966.8 g/ha (Turnip (TP) [6]) was 100% and the pest or weed control at 4483.4 g/ha (Amaranth pigweed (PW) [7]; 4 lb/acre) was 100%. The pest or weed control at 8966.8 g/ha (Amaranth pigweed (PW) [7]) was 100%, the pest or weed control at 2241.7 g/ha (Corn (CN) [8]; 2 lb/acre) was 30% and the pest or weed control at 4483.4 g/ha (Corn (CN) [8]; 4 lb/acre) was 0%. For the same compound, the pest or weed control at 8966.8 g/ha (Corn (CN) [8]) was 50%, the pest or weed control at 2241.7 g/ha (Cotton (CT) [9]; 2 lb/acre) was 100% and the pest or weed control at 4483.4 g/ha (Cotton (CT) [9]; 4 lb/acre) was 100%. For the same compound, the pest or weed control at 8966.8 g/ha (Cotton (CT) [9]) was 100%, the pest or weed control (Johnson grass (JG) [10]; 2 lb/acre) was 70% and the pest or weed control at 4483.4 g/ha (Johnson grass (JG) [10]; 4 lb/acre) was 80%. It also gave a pest or weed control at 8966.8 g/ha (Johnson grass (JG) [10]) of 100%, a pest or weed control (Corn (CN) [11]; 2 lb/acre) of 80% and a pest or weed control at 4483.4 g/ha (Corn (CN) [11]; 4 lb/acre) of 50%. It also gave a pest or weed control at 8966.8 g/ha (Corn (CN) [11]) of 100%, a pest or weed control at 2241.7 g/ha (Barnyard grass (BG) [12]; 2 lb/acre) of 40% and a pest or weed control at 4483.4 g/ha (Barnyard grass (BG) [12]; 4 lb/acre) of 60%. For the same compound, the pest or weed control at 2241.7 g/ha (Johnson grass (JG) [13]; 2 lb/acre) was 20%, the pest or weed control at 4483.4 g/ha (Johnson grass (JG) [13]; 4 lb/acre) was 40% and the pest or weed control at 8966.8 g/ha (Johnson grass (JG) [13]) was 70%. The pest or weed control at 2241.7 g/ha (Turnip (TP) [14]; 2 lb/acre) was 90%, the pest or weed control at 4483.4 g/ha (Turnip (TP) [14]; 4 lb/acre) was 50% and the pest or weed control at 8966.8 g/ha (Turnip (TP) [14]) was 100%. It also gave a pest or weed control at 4483.4 g/ha (Amaranth pigweed (PW) [15]; 4 lb/acre) of 100%, a pest or weed control at 8966.8 g/ha (Amaranth pigweed (PW) [15]) of 100% and a pest or weed control at 2241.7 g/ha (Bean (BN) [16]; 2 lb/acre) of 0%. It also gave a pest or weed control at 4483.4 g/ha (Bean (BN) [16]; 4 lb/acre) of 0% and a pest or weed control at 8966.8 g/ha (Bean (BN) [16]) of 100%.

`CNC(=O)Nc1nnc(SCc2ccc(Cl)cc2)s1` [Example 87] showed a pest or weed control at 8966.8 g/ha (Cotton (CT) [1]) of 50%, a pest or weed control at 8966.8 g/ha (Crabgrass (CG) [2]) of 20% and a pest or weed control at 8966.8 g/ha (Barnyard grass (BG) [3]; 8 lb/acre) of 20%. The pest or weed control at 8966.8 g/ha (Crabgrass (CG) [4]) was 10%, the pest or weed control at 8966.8 g/ha (Bean (BN) [5]) was 100% and the pest or weed control at 8966.8 g/ha (Turnip (TP) [6]) was 60%. It also gave a pest or weed control at 8966.8 g/ha (Amaranth pigweed (PW) [7]) of 40%, a pest or weed control at 8966.8 g/ha (Corn (CN) [8]) of 10% and a pest or weed control at 8966.8 g/ha (Cotton (CT) [9]) of 70%. It also gave a pest or weed control at 8966.8 g/ha (Johnson grass (JG) [10]) of 10%, a pest or weed control at 8966.8 g/ha (Corn (CN) [11]) of 10% and a pest or weed control at 8966.8 g/ha (Barnyard grass (BG) [12]; 8 lb/acre) of 20%. The pest or weed control at 8966.8 g/ha (Johnson grass (JG) [13]) was 20%, the pest or weed control at 8966.8 g/ha (Turnip (TP) [14]) was 10% and the pest or weed control at 8966.8 g/ha (Amaranth pigweed (PW) [15]) was 70%. It also gave a pest or weed control at 8966.8 g/ha (Bean (BN) [16]) of 100%.
